Data taken from PubChem BioAssay (NCI).
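All cell lines were grown in 96-well plates and treated with compound for 48 hours. Here, GI50 denotes the concentration required for 50% inhibition of growth. TGI marks complete inhibition of growth.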

Tests used:
Experiment in all cases: DTP human tumour cell line panel, 48 h
[1] = test system: CAKI-1 renal
[2] = test system: SF-539 CNS
[3] = test system: CCRF-CEM leukemia
[4] = test system: UACC-62 melanoma
[5] = test system: U251 CNS
[6] = test system: 786-0 renal
[7] = test system: SK-MEL-2 melanoma
[8] = test system: HL-60(TB) leukemia
[9] = test system: SNB-19 CNS
[10] = test system: MDA-MB-231 breast

SMILES	TGI [1] [µM]	TGI [2] [µM]	TGI [3] [µM]	TGI [4] [µM]	TGI [5] [µM]	TGI [6] [µM]	TGI [7] [µM]	TGI [8] [µM]	TGI [9] [µM]	GI50 [1] [µM]	GI50 [3] [µM]	GI50 [4] [µM]	GI50 [5] [µM]	GI50 [6] [µM]	GI50 [7] [µM]	GI50 [8] [µM]	GI50 [9] [µM]	GI50 [10] [µM]	TGI [10] [µM]	GI50 [2] [µM]
COc1ccc(/C=C\c2cc(OC)c3c(c2)OCO3)c(O)c1O	20.5	4.57	14.3	14	19.3	14.7	42.6	7.72	23.6											
CC1(C)COC(c2ccc(C(F)(F)F)cc2C(O)c2ccc3ccccc3c2)=N1 (stereo not drawn)	> 100	> 100	> 100	> 100	> 100	> 100	> 100	> 100	> 100	> 10	> 100	> 100	> 100	> 100	> 100	> 10	> 10			
CN(CC(=O)O)S(=O)(=O)c1ccc2ccccc2c1	> 100	> 100	> 100	> 100	> 100	> 100	> 100	> 100	> 100											
Oc1ccc(Cl)cc1-c1cc(-c2ccccc2Cl)[nH]n1	> 100		> 100	> 100		> 100		> 100	> 100	2.87	2.71	5.29		> 100		4.22	> 100	1.44	6.29	
O=C(O)CCSC(=O)Nc1cccc(F)c1		> 100	> 100		> 100	> 100	> 100	> 100	> 100											
CC(=O)OC(C)C(=O)C1c2cccc(O)c2C(=O)c2c(O)cc(C)cc21 (stereo not drawn)		0.589	6.05		1.11	2.28	1.44	0.847	1.6											
N#CC(C#N)=c1ccc(=C2NCC3CCCN23)cc1 (stereo not drawn)	> 100	> 100	> 100	> 100	> 100	> 100	> 100	> 100	> 100											
COc1ccccc1NC(=O)CC(=O)n1nc(C)c(N=Nc2ccccc2C(=O)O)c1C	> 100	> 100	> 100	> 100	> 100	> 100	> 100	> 100	> 100											
CC(=O)N1[C@H](C(=O)O)CS[C@H]1c1ccncc1	> 100	> 100	> 100	> 100		> 100		> 100	> 100											
O=c1cc(-c2cccc(O)c2)[nH]c2cc3c(cc12)OCO3		4.39	> 100	8.67	> 36.5	> 69.9		> 19.9	> 49.6										22.1	
CC(=O)NC1=C(NCC(C)(C)C)C(=O)c2ccccc2C1=O		> 100	> 100	> 100	> 100	> 100	> 100	> 100	> 100											
CCOC(=O)C(Sc1ccccc1)c1c(OC)cc(=O)oc1/C=[N+](/[O-])c1ccc(N(C)C)cc1 (stereo not drawn)	32.1	56.9	15.4	51.8	60.7	42.4	77.5		> 100											
O=C(O)C(Cc1ccccc1)N1C(=O)N/C(=C\c2ccc(F)cc2)C1=O (stereo not drawn)	> 100	> 100	> 100	> 100	> 100	> 100	> 100	> 100												
C/C(CCn1[nH]c(=O)ccc1=O)=N\O	> 100	> 100	> 100	> 100		> 100	> 100	> 100	> 100											
COC(=O)[C@@]12C3=NO[C@]1(C(=O)OC)C(O[Si](C)(C)C(C)(C)C)[C@H]1OC(C)(C)O[C@H]1[C@@H]2C(OCc1ccccc1)CC3 (stereo partly drawn)		> 100	> 100	> 100	> 100	> 100	> 100	> 100	99.8											
Cc1cc2nc(C(Cl)Cl)nc(-c3ccc(Cl)cc3)n2n1	4.11		> 100		3.7	> 100			4.64	0.798	2.83		0.509	4.93		1.11	1.05	1.23	4.21	
COc1c2ccoc2c(/C=C/C=O)c2oc(-c3ccccc3)cc(=O)c12	> 100	16.4		22.7	12.9	> 100	> 100	5.62	> 100	15.4		5.45	3.06	26.9	10.6	2.33	12	4.1	> 100	3.59
COc1ccc(NC(=O)c2cc(OC)cc(OC)c2)cc1	> 100	> 70.3	> 100	> 100	> 61.3	> 100	> 100	39.1	> 100											
O=C1C2=C(SCCS2)C(=O)c2ccccc21	3.32	3.09	4.2	3.04	3.02	3.12	4.07	6.77	2.87											
C=CCc1cc(OC)c2c(c1)C(O)CC(c1ccc(OC)c(OC)c1)O2 (stereo not drawn)	> 100	> 100	> 100	> 100	> 100	> 100	> 100	> 100	> 100											
O=C(O)c1cc(C(=O)O)cc(N2C(=O)c3ccccc3C2=O)c1	> 100	> 100		> 100	> 100	> 100	> 100	> 100	> 100										> 100	
